In publication PMC7693880, “Preparation and Evaluation of Amino Acid Conjugates of Celecoxib as Prodrugs to Improve the Pharmacokinetic and Therapeutic Properties of Celecoxib” (Pharmaceutics, 2020):
Where a name gives a salt, the structure may show the parent alone.

What was measured:
[1] = Drug release study in cecal contents; format: in vitro ADME, Sprague Dawley rats; settings: incubation with cecal contents, after 24 h
Protocol: Drug release study was performed with the celecoxib derivatives as described previously. Six-week-old male Sprague Dawley rats (250–260 g) were sacrificed using CO2, and a midline incision was made. The contents of the proximal small intestine, distal small intestine, and cecum, liver homogenate, or blood plasma were collected and suspended in IPB (20% (w/v)). A1C, G1C, or N-GA1C in the buffer (0.5 mL, 1 mM) was mixed with 0.5 mL of the suspension and then incubated at 37 °C under nitrogen gas. At the predetermined time points, the samples were extracted with 0.5 mL of ethyl acetate followed by centrifugation at 6000× g for 5 min. Methanol (1.0 mL) was added to the residue obtained from the evaporation of 0.1 mL of the organic layer. The solution was centrifuged at 20,000× g at 4 °C for 10 min. The concentrations of celecoxib, A1C, G1C, and N-GA1C in 20 μL of the supernatant were determined by HPLC.

[2] = Apparent distribution coefficient (logD6.8) measurement, 1-octanol / pH 6.8 isotonic phosphate buffer; format: physicochemical; settings: 37 °C; for logD: pH 6.8, 1-octanol / pH 6.8 isotonic phosphate buffer, read-out: Log D6.8 (apparent distribution coefficient)
Protocol: For this study, 1-octanol and pH 6.8 isotonic phosphate buffer (IPB) were pre-saturated with IPB and 1-octanol, respectively. 1-octanol (10 mL) was added to 500 μM of celecoxib, A1C, or N-GA1C in 10 mL IPB. The mixture was shaken for 1 h and left at 37 °C for 3 h. The concentration of celecoxib, A1C, G1C, or N-GA1C in the aqueous phase was analyzed by HPLC. The apparent partition coefficients were calculated using the equation (Co − Cw)/Cw, where Co and Cw represent the initial and equilibrium concentration of the drug in the aqueous phase, respectively.

[3] = Pharmacokinetic study after oral or intravenous administration; format: in vivo, Sprague Dawley rats; settings: rat; for increase of the absolute BA of celecoxib: 20 mg/kg
Protocol: Blood samples were collected from the jugular vein using a heparinized syringe at predetermined times. Heparinized blood samples were immediately centrifuged at 6000× g for 5 min. Five-fold volume of ethyl acetate was mixed with plasma, centrifugation was performed at 6000× g for 5 min, and 1 mL of the organic solvent was evaporated. The residues were mixed with 0.1 mL of IPB and centrifuged at 20,000× g for 10 min at 4 °C. The concentration of celecoxib or N-GA1C in the samples was determined by HPLC. PK profiling was performed using PKsolver. Absolute BA and relative BA were calculated using the following equations: Absolute BA (F, %) = ((AUC0–∞)PO/dose PO)/((AUC0–∞)IV/dose IV); Relative BA (%) = ((AUC0–∞)A/dose A)/((AUC0–∞)B/dose B).

[4] = tested on: carrageenan-induced paw edema; assay: Carrageenan-induced rat paw edema model; format: in vivo, Sprague Dawley rats; settings: oral 10 mg/kg (equivalent mass of celecoxib)
Protocol: Six-week-old male Sprague Dawley rats (250–260 g) were orally administered celecoxib (10 mg/kg), A1C (equivalent mass of celecoxib), G1C (equivalent mass of celecoxib), N-GA1C (equivalent mass of celecoxib), or IPB as a control. After 1 h, 0.1 mL of carrageenan (1%) was injected into the hind paw of the rats. Carrageenan-induced increase in paw volume (paw edema) was measured at predetermined time points (0, 3, 6, 12, and 24 h). The paw volume of rats up to the knee joint was measured using a plethysmometer. The degree of inhibition of paw edema (%) at each time point was calculated using the following equation: (Control volume − treatment group volume)/Control paw volume × 100.

[5] = male, Sprague Dawley, plasma, IV, 10 mg/kg

SMILES	conversion to celecoxib [1]	logD [2]	increase of the absolute BA of celecoxib ([3]; oral, vs oral celecoxib)	melting point [°C]	volume reduction of paw edema ([4]; at 6 h) [%]	volume reduction of paw edema ([4]; at 24 h) [%]	further results
Cc1ccc(-c2cc(C(F)(F)F)nn2-c2ccc(S(=O)(=O)NC(=O)C(N)CCC(=O)O)cc2)cc1 (stereo not shown) [G1C, glutam-1-yl celecoxib]	partially converted to celecoxib	0.8	three	–	–	–	Log D6.8 (apparent distribution coefficient) [2]: 0.81
Cc1ccc(-c2cc(C(F)(F)F)nn2-c2ccc(S(=O)(=O)NC(=O)C(N)CCC(=O)O)cc2)cc1 (stereo not shown) (as salt: salt) [G1C, glutam-1-yl celecoxib]	–	–	–	110 to 115	–	–	–
Cc1ccc(-c2cc(C(F)(F)F)nn2-c2ccc(S(=O)(=O)NC(=O)C(CC(=O)O)NC(=O)CN)cc2)cc1 (stereo not shown) [N-GA1C, N-glycyl-aspart-1-yl celecoxib]	–	-0.13	–	–	32.42 ± 2.50	78.96 ± 1.56	plasma concentration of N-GA1C ([3]; oral N-GA1C 10 mg/kg, for 24 h): not detected

More lines, main results first:

conversion to celecoxib [1]	logD [2]	increase of the absolute BA of celecoxib ([3]; oral, vs oral celecoxib)	melting point [°C]	SMILES	volume reduction of paw edema ([4]; at 6 h) [%]	volume reduction of paw edema ([4]; at 24 h) [%]	further results
partially converted to celecoxib	0.6	approximately two	–	Cc1ccc(-c2cc(C(F)(F)F)nn2-c2ccc(S(=O)(=O)NC(=O)[C@@H](N)CC(=O)O)cc2)cc1 [A1C, aspart-1-yl celecoxib]	–	–	increase in absolute BA ([3]; oral, 10 mg/kg, vs oral celecoxib): no increase
–	4.01	–	–	Cc1ccc(-c2cc(C(F)(F)F)nn2-c2ccc(S(N)(=O)=O)cc2)cc1 [Celecoxib]	42.06 ± 4.69	20.99 ± 2.791	Vd [3, 5]: 1.04 L/kg; clearance [3, 5]: 8.01 mL/min/kg; half-life [3, 5]: 1.5 h; AUC(0-inf) ([3]; male, Sprague Dawley, IV, 10 mg/kg, celecoxib in plasma): 6120 ± 520 ng·h/mL; AUC(0-t) ([3]; male, Sprague Dawley, IV, 10 mg/kg, celecoxib in plasma, read-out: AUC0–24): 5990 ± 440 ng·h/mL
–	–	–	134 to 137	Cc1ccc(-c2cc(C(F)(F)F)nn2-c2ccc(S(=O)(=O)NC(=O)[C@@H](N)CC(=O)O)cc2)cc1 (as salt: salt) [A1C, aspart-1-yl celecoxib]	–	–	–
